Earlier results as cited in patent US20090142391A1, “Conjugated RNAi Therapeutics” (priority 2007, published 2009).

Settings: in the blood

distribution into protected cellular compartments: 72-98%
SMILES: C=CC[C@@H]1/C=C(\C)C[C@H](C)C[C@H](OC)[C@H]2O[C@@](O)(C(=O)C(=O)N3CCCC[C@H]3C(=O)O[C@H](/C(C)=C/[C@@H]3CC[C@@H](O)[C@H](OC)C3)[C@H](C)[C@@H](O)CC1=O)[C@H](C)C[C@@H]2OC [FK506]
